Measurements from ChEMBL document CHEMBL1142160, “Overexpression and initial characterization of the chromosomal aminoglycoside 3'-O-phosphotransferase APH(3')-IIb from Pseudomonas aeruginosa” (2007).
In brackets after ≈: the same amount, converted by molar mass.

Legend:
Type in all cases: functional
Escherichia coli [1] = assay: Antibacterial activity against Escherichia coli BL21(DE3)
Pseudomonas aeruginosa = assay: Antibacterial activity against Pseudomonas aeruginosa ATCC 27853
Escherichia coli [2] = assay: Antibacterial activity against Escherichia coli BL21(DE3) expressing Pseudomonas aeruginosa APH(3')-2b

Row | SMILES | MIC (Escherichia coli [1]) [µg/mL] | MIC (Pseudomonas aeruginosa) [µg/mL] | MIC (Escherichia coli [2]) [µg/mL]
1 | NCC[C@H](O)C(=O)N[C@@H]1C[C@H](N)[C@@H](O[C@H]2O[C@H](CN)[C@@H](O)[C@H](O)[C@H]2O)[C@H](O)[C@H]1O[C@H]1O[C@H](CO)[C@@H](O)[C@H](N)[C@H]1O [AMIKACIN] | 12 (≈ 20.5 µM) | 3 (≈ 5.12 µM) | 12 (≈ 20.5 µM)
2 | NC[C@@H]1O[C@H](O[C@H]2[C@@H](O)[C@H](O[C@@H]3[C@@H](O)[C@H](N)C[C@H](N)[C@H]3O[C@H]3O[C@H](CN)[C@@H](O)[C@H](O)[C@H]3N)O[C@@H]2CO)[C@H](N)[C@@H](O)[C@@H]1O [FRAMYCETIN] | 12 (≈ 19.5 µM) | 128 (≈ 208 µM) | 96 (≈ 156 µM)
3 | NC[C@@H]1O[C@@H](O[C@H]2[C@H](O)[C@@H](O[C@H]3O[C@H](CO)[C@@H](O)[C@H](N)[C@H]3O)[C@H](N)C[C@@H]2N)[C@@H](O)[C@H](O)[C@H]1O [KANAMYCIN A] | 12 (≈ 24.8 µM) | 256 (≈ 528 µM) | 768 (≈ 1590 µM)
4 | NC[C@H]1O[C@H](O[C@H]2[C@H](O)[C@@H](O)[C@H](N)C[C@@H]2N)[C@H](N)[C@@H](O)[C@@H]1O [NEAMINE] | 96 (≈ 298 µM) | 512 (≈ 1590 µM) | 1540 (≈ 4760 µM)
5 | NC[C@H]1O[C@H](O[C@H]2[C@H](O[C@@H]3O[C@H](CO)[C@@H](O)[C@H]3O)[C@@H](O)[C@H](N)C[C@@H]2N)[C@H](N)[C@@H](O)[C@@H]1O [RIBOSTAMYCIN] | 12 (≈ 26.4 µM) | 384 (≈ 845 µM) | 768 (≈ 1690 µM)
6 | NC[C@H]1O[C@H](O[C@H]2[C@H](O)[C@@H](O[C@H]3O[C@H](CO)[C@@H](O)[C@H](N)[C@H]3O)[C@H](N)C[C@@H]2N)[C@H](N)C[C@@H]1O [TOBRAMYCIN] | 6 (≈ 12.8 µM) | 1 (≈ 2.14 µM) | 6 (≈ 12.8 µM)
